Reference: PubChem BioAssay (NCI)
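Each compound was tested at five concentrations against cells in 96-well plates for 48 hours. GI50 marks 50% less growth. At the TGI there is no net growth.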

What was measured:
Experiment in all cases: NCI anticancer screen, dose series, 48 h
[1] = system: SW-620 colon
[2] = system: HCC-2998 colon
[3] = system: MOLT-4 leukemia
[4] = system: HS 578T breast
[5] = system: UACC-257 melanoma
[6] = system: MDA-MB-435
[7] = system: HCT-116 colon
[8] = system: SF-539 CNS
[9] = system: DU-145 prostate
[10] = system: EKVX NSCLC
[11] = system: OVCAR-4 ovarian
[12] = system: T-47D breast
[13] = system: COLO 205 colon
[14] = system: K-562 leukemia
[15] = system: SN12C renal
[16] = system: SNB-75 CNS
[17] = system: ACHN renal
[18] = system: HOP-62 NSCLC
[19] = system: A549 NSCLC
[20] = system: MDA-MB-231 breast
[21] = system: MALME-3M melanoma
[22] = system: NCI/ADR-RES ovarian
[23] = system: OVCAR-5 ovarian
[24] = system: LOX IMVI melanoma
[25] = system: HCT-15 colon
[26] = system: MCF7 breast
[27] = system: RPMI-8226 leukemia
[28] = system: KM12 colon
[29] = system: NCI-H23 lung
[30] = system: M14 melanoma
[31] = system: NCI-H522 lung
[32] = system: SK-OV-3 ovarian
[33] = system: OVCAR-8 ovarian
[34] = system: CCRF-CEM leukemia
[35] = system: OVCAR-3 ovarian
[36] = system: CAKI-1 renal
[37] = system: NCI-H460 lung
[38] = system: HL-60(TB) leukemia
[39] = system: NCI-H226 lung
[40] = system: HT29 colon
[41] = system: 786-0 renal
[42] = system: SF-268 CNS
[43] = system: A498 renal
[44] = system: BT-549 breast
[45] = system: RXF 393 renal
[46] = system: PC-3 prostate
[47] = system: UO-31 renal
[48] = system: HOP-92 NSCLC
[49] = system: UACC-62 melanoma
[50] = system: U251 CNS
[51] = system: SK-MEL-5 melanoma
[52] = system: SK-MEL-28 melanoma
[53] = system: SNB-19 CNS
[54] = system: SR leukemia
[55] = system: TK-10 renal
[56] = system: SF-295 CNS

Structure (SMILES): O=c1oc2ccccc2c(Cl)c1Cl
- GI50 [1]: 1.51 µM
- TGI [1]: 5.6 µM
- GI50 [2]: 9.86 µM
- TGI [2]: 21.8 µM
- GI50 [3]: 3.37 µM
- TGI [3]: > 100 µM
- GI50 [4]: 2.69 µM
- TGI [4]: 9.71 µM
- GI50 [5]: 2.24 µM
- TGI [5]: 5.39 µM
- GI50 [6]: 3.32 µM
- TGI [6]: 11.4 µM
- GI50 [7]: 3.49 µM
- TGI [7]: 13.6 µM
- GI50 [8]: 4.07 µM
- TGI [8]: 15.3 µM
- GI50 [9]: 3.02 µM
- TGI [9]: 12.1 µM
- GI50 [10]: 11.2 µM
- TGI [10]: 27.1 µM
- GI50 [11]: 6.76 µM
- TGI [11]: 19.6 µM
- GI50 [12]: 2.38 µM
- TGI [12]: 6.87 µM
- GI50 [13]: 2.19 µM
- TGI [13]: 4.84 µM
- GI50 [14]: 2.63 µM
- TGI [14]: > 100 µM
- GI50 [15]: 4.58 µM
- TGI [15]: 16.8 µM
- GI50 [16]: 2.85 µM
- TGI [16]: 12.9 µM
- GI50 [17]: 2.49 µM
- TGI [17]: 5.92 µM
- GI50 [18]: 3.49 µM
- TGI [18]: 14.2 µM
- GI50 [19]: 15.5 µM
- TGI [19]: 32.2 µM
- GI50 [20]: 2.48 µM
- TGI [20]: 6.2 µM
- GI50 [21]: 2.23 µM
- TGI [21]: 12.4 µM
- GI50 [22]: 5.85 µM
- TGI [22]: 21.4 µM
- GI50 [23]: 14.7 µM
- TGI [23]: 30.1 µM
- GI50 [24]: 1.76 µM
- TGI [24]: 12.4 µM
- GI50 [25]: 2.24 µM
- TGI [25]: 6.28 µM
- GI50 [26]: 2.83 µM
- TGI [26]: 10.6 µM
- GI50 [27]: 2.71 µM
- TGI [27]: 8.66 µM
- GI50 [28]: 3.61 µM
- TGI [28]: 13.7 µM
- GI50 [29]: 5.56 µM
- TGI [29]: 18.9 µM
- GI50 [30]: 3.47 µM
- TGI [30]: 14.1 µM
- GI50 [31]: 3.46 µM
- TGI [31]: 15.5 µM
- GI50 [32]: 13.3 µM
- TGI [32]: 87.3 µM
- GI50 [33]: 4.23 µM
- TGI [33]: 17.4 µM
- GI50 [34]: 0.595 µM
- TGI [34]: 30 µM
- GI50 [35]: 1.94 µM
- TGI [35]: 4.38 µM
- GI50 [36]: 2.69 µM
- TGI [36]: 8.97 µM
- GI50 [37]: 3.21 µM
- TGI [37]: 12.1 µM
- GI50 [38]: 4.09 µM
- TGI [38]: 34.3 µM
- GI50 [39]: 10 µM
- TGI [39]: 24.5 µM
- GI50 [40]: 2.25 µM
- TGI [40]: 4.85 µM
- GI50 [41]: 5.82 µM
- TGI [41]: 18.7 µM
- GI50 [42]: 3.91 µM
- TGI [42]: 16.3 µM
- GI50 [43]: 10.4 µM
- TGI [43]: 22.4 µM
- GI50 [44]: 2.63 µM
- TGI [44]: 9.33 µM
- GI50 [45]: 1.95 µM
- TGI [45]: 4.31 µM
- GI50 [46]: 7.51 µM
- TGI [46]: 24.5 µM
- GI50 [47]: 1.83 µM
- TGI [47]: 4.73 µM
- GI50 [48]: 5.71 µM
- TGI [48]: 18.6 µM
- GI50 [49]: 4.82 µM
- TGI [49]: 18.1 µM
- GI50 [50]: 2.85 µM
- TGI [50]: 8.86 µM
- GI50 [51]: 4.94 µM
- TGI [51]: 16.9 µM
- GI50 [52]: 2.68 µM
- TGI [52]: 7.76 µM
- GI50 [53]: 10.5 µM
- TGI [53]: 22.7 µM
- GI50 [54]: 2.29 µM
- TGI [54]: 65.8 µM
- GI50 [55]: 1.88 µM
- TGI [55]: 3.7 µM
- GI50 [56]: 11.7 µM
- TGI [56]: 28.4 µM
